# Test results published in patent US8664380B2, “Heterocyclic compound and use thereof” (Takeda Pharmaceutical Company Limited, priority 2008, dated 2014).
# Counter-ions that a name gives are not always drawn.
# Key:
# plasma renin activity = experiment: Ex vivo plasma renin activity (PRA) test after oral administration; type: in vivo, Macaca fascicularis; conditions: for inhibition at 1 mg/kg: Macaca fascicularis, po, 4 h, read-out: Macaca fascicularis plasma renin activity, PPA inhibitory activity (%, n = 3-7); for Macaca fascicularis plasma renin activity, PPA inhibitory activity (%, n = 3-7): male macaca fascicularis, 1 mg/kg orally in 0.5% methylcellulose, plasma 4 hr after administration, amended with vehicle group
# Protocol: Male macaca fascicularis was used. […] PRA was calculated by the following formula.
# Human renin = target: T1, Human renin (Homo sapiens, UniProt P00797); experiment: Human renin inhibition; angiotensin I formed from angiotensinogen quantified by EIA; conditions: for Human renin inhibitory activity, inhibitory activity (%) at 0.1 μM: 0.1 μM test compound, substrate human angiotensinogen, 37° C. 30 min; for inhibition at 0.1 µM: read-out: Human renin inhibitory activity, inhibitory activity (%) at 0.1 μM
# T1 sequence (P00797 67-406): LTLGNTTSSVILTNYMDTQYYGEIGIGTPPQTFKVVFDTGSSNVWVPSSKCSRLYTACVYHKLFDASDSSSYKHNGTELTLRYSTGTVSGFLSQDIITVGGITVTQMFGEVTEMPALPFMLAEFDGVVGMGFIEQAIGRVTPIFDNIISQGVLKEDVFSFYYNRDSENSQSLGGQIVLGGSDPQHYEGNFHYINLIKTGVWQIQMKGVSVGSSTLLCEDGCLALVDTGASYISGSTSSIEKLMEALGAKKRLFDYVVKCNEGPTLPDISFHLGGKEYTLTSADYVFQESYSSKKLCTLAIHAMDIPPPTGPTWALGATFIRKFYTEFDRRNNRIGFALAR
# Protocol: As a substrate for renin activity measurement, the angiotensinogen mentioned in (5) above was used. 1 μl each of the test compound (containing 100% DMSO) was added to each well of a 384-well plate (ABgene). Renin was diluted with a buffer solution for reaction (20 mM sodium phosphate (pH 7.4)) to a concentration of 57 pM, and 14 μl each of the dilution was added to each well. The dilution was left to stand at 37° C. for 10 min, and then 5 μl of each of a 6 μM solution of substrate angiotensinogen was added to each well to initiate the reaction. […] The amount of angiotensin I produced by an enzyme reaction was quantified by Enzyme Immuno Assay (EIA) described below.
# Anti-angiotensin I antibody (Peninsula Laboratories Inc.) diluted 5,000-fold with PBS was added to each well of a 384 well black plate (Nalge Nunc International Co., Ltd.) by 25 μl, and left standing overnight at 4° C. to immobilize the antibody in the plate. The antibody solution was removed, PBS solution (100 μl) containing 1% BSA was added to each well, and the mixture was left standing at room temperature for 2 hr for blocking. The blocking solution was removed, and each well was washed 5 times with 100 μl of 0.05% Tween20-PBS. […] Then, a biotinated angiotensin I solution (AnaSpec, 15 μl) prepared to 1.6 nM with a buffer [20 mM tris-hydrochloric acid (pH 7.4), 150 mM sodium chloride, 0.01% BSA, 0.05% Tween20] was added to each well, mixed with a plate mixer and left standing at room temperature for 1 hr. The solutions were removed from each well, and each well was washed 5 times with 100 μl of 0.05% Tween20-PBS. Horseradish peroxydase Streptavidin (PIERCE Biotechnology inc., 25 μl) diluted to 100 ng/ml with a buffer [20 mM tris-hydrochloric acid (pH 7.4), 150 mM sodium chloride, 0.1% BSA, 0.05% Tween 20] was added to each well and the mixture was left standing at room temperature for 30 min. The solutions were removed from each well, and each well was washed 5 times with 100 μl of 0.05% Tween20-PBS. SuperSignal ELISA femto Maximum Sensitivity Substrate (PIERCE Biotechnology Inc.) was added by 25 μl and luminescence intensity was measured by EnVision (Perkin Elmer Inc.). An analytical curve was drawn from the luminescence intensity of wells containing an angiotensin I standard solution, and the amount of angiotensin I produced by an enzyme reaction was calculated and used as an index of renin activity.
Compound,inhibition at 1 mg/kg (plasma renin activity),inhibition at 0.1 µM (Human renin),further results
"COCCCCn1c(C(=O)N(CC(C)C)[C@@H]2CNC[C@H](C(=O)N3CCOCC3)C2)nc2ccc(OC)cc21 [Example 60, 6-methoxy-1-(4-methoxybutyl)-N-(2-methylpropyl)-N-{(3S,5R)-5-(morpholin-4-ylcarbonyl)piperidin-3-yl}-1H-benzimidazole-2-carboxamide dihydrochloride]",85%,,
"COCCCCn1c(C(=O)N(CC(C)C)[C@@H]2CNC[C@H](C(=O)N3CCCC3)C2)nc2ccc(OC)cc21 [Example 62, 6-methoxy-1-(4-methoxybutyl)-N-(2-methylpropyl)-N-{(3S,5R)-5-(pyrrolidin-1-ylcarbonyl)piperidin-3-yl}-1H-benzimidazole-2-carboxamide dihydrochloride]",75%,,
"N-{(3S,5R)-5-[(1S)-1-hydroxyethyl]piperidin-5-yl}-1-(4-methoxybutyl)-N-(2-methylpropyl)-1H-benzimidazole-2-carboxamide dihydrochloride [Example 74-1]",,,"Macaca fascicularis plasma renin activity, PPA inhibitory activity (%, n = 3-7) (plasma renin activity): 90%; Human renin inhibitory activity, inhibitory activity (%) at 0.1 μM (Human renin): 94%"
"COCCCCn1c(C(=O)N(CC(C)C)[C@@H]2CNC[C@H](C(=O)N3CCOCC3)C2)nc2ccccc21 [Example 49, 1-(4-methoxybutyl)-N-(2-methylpropyl)-N-[(3S,5R)-5-(morpholin-4-ylcarbonyl)piperidin-3-yl]-1H-benzimidazole-2-carboxamide methanesulfonate]",,97%,
"COCCCCn1c(C(=O)N(CC(C)C)[C@@H]2CNC[C@H](C(O)COC)C2)nc2ccccc21 (stereo partly drawn) [Example 48, N-[(3S,5R)-5-(1-hydroxy-2-methoxyethyl)piperidin-3-yl]-1-(4-methoxybutyl)-N-(2-methylpropyl)-1H-benzimidazole-2-carboxamide dihydrochloride]",78%,97%,
"COCCCCn1c(C(=O)N(CC(C)C)[C@@H]2CNC[C@H](C(N)=O)C2)nc2ccccc21 [Example 25, N-[(3S,5R)-5-carbamoylpiperidin-3-yl]-1-(4-methoxybutyl)-N-(2-methylpropyl)-1H-benzimidazole-2-carboxamide dihydrochloride]",79%,98%,
"COCCCCn1c(C(=O)N(CC2CC2)[C@@H]2CNC[C@H](C(=O)N3CCOCC3)C2)nc2ccccc21 [Example 253, N-(cyclopropylmethyl)-1-(4-methoxybutyl)-N-[(3S,5R)-5-(morpholin-4-ylcarbonyl)piperidin-3-yl]-1H-benzimidazole-2-carboxamide dihydrochloride]",77%,,
"COCCCCn1c(C(=O)N(CC(C)C)[C@@H]2CNC[C@H]([C@@H](O)COC)C2)nc2ccccc21 [Example 73-1, N-{(3S,5R)-5-[(1R)-1-hydroxy-2-methoxyethyl]piperidin-3-yl}-1-(4-methoxybutyl)-N-(2-methylpropyl)-1H-benzimidazole-2-carboxamide dihydrochloride]",77%,96%,
"COCCCCc1c(C(=O)N(CC(C)C)[C@@H]2CNC[C@H](C(=O)N3CCOCC3)C2)nnn1-c1ccccc1F [Example 233, 1-(2-fluorophenyl)-5-(4-methoxybutyl)-N-(2-methylpropyl)-N-[(3S,5R)-5-(morpholin-4-ylcarbonyl)piperidin-3-yl]-1H-1,2,3-triazole-4-carboxamide hydrochloride]",67%,97%,
"COCCCCn1c(C(=O)N(CC(C)C)[C@@H]2CNC[C@H](C(=O)O)C2)nc2ccccc21 [Example 33, (3R,5S)-5-[{[1-(4-methoxybutyl)-1H-benzimidazol-2-yl]carbonyl}(2-methylpropyl)amino]piperidine-3-carboxylic acid dihydrochloride]",77%,,
"COCCCCn1c(C(=O)N(CC(C)C)[C@@H]2CNC[C@H](C(=O)N3CCOCC3)C2)nc2ccc(F)cc21 [Example 11, 6-fluoro-1-(4-methoxybutyl)-N-(2-methylpropyl)-N-[(3S,5R)-5-(morpholin-4-ylcarbonyl)piperidin-3-yl]-1H-benzimidazole-2-carboxamide dihydrochloride]",89%,,
"N-{(3S, 5R)-5-[(1S)-1-hydroxypropyl]piperidin-5-yl}-1-(4-methoxybutyl)-N-(2-methylpropyl)-1H-benzimidazole-2-carboxamide dihydrochloride [Example 75-1]",,,"Macaca fascicularis plasma renin activity, PPA inhibitory activity (%, n = 3-7) (plasma renin activity): 86%; Human renin inhibitory activity, inhibitory activity (%) at 0.1 μM (Human renin): 95%"
"COCCCCn1c(C(=O)N(CC(C)C)[C@@H]2CNC[C@H](C(=O)N3CCOCC3)C2)cc2ccccc21 [Example 3, 1-(4-methoxybutyl)-N-(2-methylpropyl)-N-[(3S,5R)-5-(morpholin-4-ylcarbonyl)piperidin-3-yl]-1H-indole-2-carboxamide hydrochloride]",,96%,
"COCCCCn1c(C(=O)N(CC(C)C)[C@@H]2CNC[C@H](CO)C2)nc2ccccc21 [Example 40, N-[(3S,5R)-5-(hydroxymethyl)piperidin-3-yl]-1-(4-methoxybutyl)-N-(2-methylpropyl)-1H-benzimidazole-2-carboxamide dihydrochloride]",75%,97%,
"COCCCCn1c(C(=O)N(CC(C)C)[C@@H]2CNC[C@H](C(=O)N3CCOCC3)C2)nc2ccc(F)cc21 [Example 12, 6-fluoro-1-(4-methoxybutyl)-N-(2-methylpropyl)-N-[(3S,5R)-5-(morpholin-4-ylcarbonyl)piperidin-3-yl]-1H-benzimidazole-2-carboxamide dihydrochloride]",,97%,
"COCCCCn1c(C(=O)N(CC(C)C)[C@@H]2CNC[C@H](C(C)(C)O)C2)nc2ccccc21 [Example 38, N-[(3S,5R)-5-(1-hydroxy-1-methylethyl)piperidin-3-yl]-1-(4-methoxybutyl)-N-(2-methylpropyl)-1H-benzimidazole-2-carboxamide dihydrochloride]",,98%,
"CC(C)CN(C(=O)c1nc2ccccn2c1COc1ccccc1)[C@@H]1CNC[C@H](C(=O)N2CCOCC2)C1 [Example 117, N-(2-methylpropyl)-N-[(3S, 5R)-5-(morpholin-4-ylcarbonyl)piperidin-3-yl]-3-(phenoxymethyl)imidazo[1,2-a]pyridine-2-carboxamide dihydrochloride]",,98%,
"CCCN(C(=O)c1nc2ccccc2n1CCCCOC)[C@@H]1CNC[C@H](C(=O)N2CCOCC2)C1 [Example 255, 1-(4-methoxybutyl)-N-[(3S,5R)-5-(morpholin-4-ylcarbonyl)piperidin-3-yl]-N-propyl-1H-benzimidazole-2-carboxamide dihydrochloride]",84%,,
"COCCCn1c(C(=O)N(CC(C)C)[C@@H]2CNC[C@H](C(=O)N3CCOCC3)C2)nc2ccccc21 [Example 85, 1-(3-methoxypropyl)-N-(2-methylpropyl)-N-[(3S, 5R)-5-(morpholin-4-ylcarbonyl)piperidin-3-yl]-1H-benzimidazole-2-carboxamide 1/2 sulfate]",,97%,
"COCCCCn1c(C(=O)N(CC(C)C)[C@@H]2CNC[C@H](C(=O)N3CCCC3)C2)nc2cc(F)ccc21 [Example 18, 5-fluoro-1-(4-methoxybutyl)-N-(2-methylpropyl)-N-[(3S,5R)-5-(pyrrolidin-1-ylcarbonyl)piperidin-3-yl]-1H-benzimidazole-2-carboxamide dihydrochloride]",89%,,
"CCC(O)[C@H]1CNC[C@@H](N(CC(C)C)C(=O)c2nc3ccccc3n2CCCCOC)C1 (stereo partly drawn) [Example 76, N-[(3S, 5R)-5-(1-hydroxypropyl)piperidin-3-yl]-1-(4-methoxybutyl)-N-(2-methylpropyl)-1H-benzimidazole-2-carboxamide dihydrochloride]",79%,,
"COCCCCn1c(C(=O)N(CC(C)C)[C@@H]2CNC[C@H](C(=O)OCc3oc(=O)oc3C)C2)nc2ccccc21 [Example 7, (5-methyl-2-oxo-1,3-dioxol-4-yl)methyl (3R,5S)-5-[{[1-(4-methoxybutyl)-1H-benzimidazol-2-yl]carbonyl}(2-methylpropyl)amino]piperidine-3-carboxylate dihydrochloride]",93%,,
"COCCCCn1c(C(=O)N(CC(C)C)[C@@H]2CNC[C@H](C(=O)N3CCCCC3)C2)nc2ccccc21 [Example 21, 1-(4-methoxybutyl)-N-(2-methylpropyl)-N-[(3S,5R)-5-(piperidin-1-ylcarbonyl)piperidin-3-yl]-1H-benzimidazole-2-carboxamide dihydrochloride]",85%,,
"COCCCCn1c(C(=O)N(CC(C)C)[C@@H]2CNC[C@H](C(C)O)C2)nc2ccccc21 (stereo partly drawn) [Example 42, N-[(3S,5R)-5-(1-hydroxyethyl)piperidin-3-yl]-1-(4-methoxybutyl)-N-(2-methylpropyl)-1H-benzimidazole-2-carboxamide dihydrochloride]",70%,,
"COCCOCc1c(C(=O)N(CC(C)C)[C@@H]2CNC[C@H](C(=O)N3CCOCC3)C2)nc2ccccn12 [Example 4, 3-[(2-methoxyethoxy)methyl]-N-(2-methylpropyl)-N-[(3S,5R)-5-(morpholin-4-ylcarbonyl)piperidin-3-yl]imidazo[1,2-a]pyridine-2-carboxamide dihydrochloride]",,96%,
